# Where no end group is shown, it is not given here.
# System: Candida albicans strain 820
# Test: ultrasensitive radial diffusion assay in agarose gels, Candida
# Assay type: cell-based
# Conditions: underlay agar pH 7.4, overnight incubation, FIG. 5c
# Experimental: Aliquots of these column fractions were dried by vacuum centrifugation, resuspended in a small volume (approximately 17 μl) of 0.01% HOAc and 5 μl samples were tested for antimicrobial activity against Escherichia coli ML-35, Listeria monocytogenes strain EGD and Candida albicans strain 820, by the ultrasensitive radial diffusion technique described by Lehrer, R. I. et al. J Immunol Meth (1991) 137:167-173. […] A 1 mm diameter clear zone around the sample well after overnight incubation corresponded to 10 units of microbicidal activity.
# The radial diffusion assay in agarose gels described in Example 1 was also used to test the activity of the purified gallinacins. FIGS. 5a, 5b and 5c show the results against three test organisms in units described as above. Rabbit defensin (NP-1) and human defensin (HNP-1) were used as controls.
row,Substance,antifungal activity against Candida albicans
1,"Gal1: 39-residue antimicrobial peptide isolated from chicken neutrophils, six cysteines in three intramolecular disulfide bonds",effective
2,"Gal2: 36-residue antimicrobial peptide isolated from chicken neutrophils, six cysteines in three intramolecular disulfide bonds (LFCKGGSCHFGGCPSHLIKVGSCFGFRSCCKWPWNA; not fully specified (residues 3, 8, 13, 23, 29, 30, bridges); also: native peptide: three intramolecular disulfides, pairing not given here)",relatively poor activity
3,"Gal1α: antimicrobial peptide isolated from chicken neutrophils; differs from Gal1 only in positions 10, 20 and 32",effective

# Reference: patent US5635594A, “Gallinacins - antibiotic peptides” (University of California, Los Angeles, priority 1994, dated 1997)
